Test results taken from patent US5571822A, “Antitumor compounds” (The University of North Carolina at Chapel Hill, priority 1994, dated 1996).
Where two headings read alike, the source gives them in different places.

How the values were obtained:
[1] = test system: tubulin; assay: inhibition of tubulin polymerization (ITP); assay type: biochemical, bovine
Procedure: Electrophoretically homogeneous bovine brain tubulin was purified as described previously (Hamel, et al., 1984). […] Dihydrocombretastatin A-4 was prepared as described previously (Getahun et al., 1992).
The tubulin polymerization assay was performed as described previously (Li et al., 1994). In brief, tubulin at 1.2 mg/mL ([…]) was preincubated for 15 min at 26° C. in a 0.24 mL volume in 0.8M monosodium glutamate (pH 6.6 with NaOH in a 2M stock solution) with varying drug concentrations. The drug stock solutions were in dimethyl sulfoxide, and the final solvent concentration was 4% (v/v). […] All concentrations are in terms of the final reaction volume (0.25 mL). The reaction mixtures were chilled on ice, and […] of 10 mM GTP was added to each reaction mixture. Samples were transferred to cuvettes held at 0° C. by an electronic temperature controller in Gilford spectrophotometers. Baselines were established at 350 nm, and polymerization initiated by a temperature jump to 26° C. The jump took about 50 sec to complete. After 20 min, turbidity readings were recorded, and the temperature controller was set to 0° C. When depolymerization was complete, turbidity readings were again recorded. […] IC50 values were obtained graphically from inhibition of polymerization by different drug concentrations. Four spectrophotometers were used for each experimental sequence, with at least two control reactions (no drug) in each set.

[2] = test system: tubulin; assay: inhibition of radiolabeled colchicine binding to tubulin (ICB); parameters: species or system bovine; conditions: evaluated only when polymerization IC50 ≤ 1.0 μM; inhibitor equimolar with [3H]colchicine, 5-fold molar excess over tubulin
Procedure: Studies conducted in support of the present invention indicate that one mode of action of the 2-phenyl-4-quinolone compounds, as antitumor agents, is an ability to bind to tubulin and inhibit cell mitosis. […] […].
[…]. […] […].
Electrophoretically homogeneous bovine brain tubulin was purified as described previously (Hamel, et al., 1984). Combretastatin A-4 was a generous gift of Dr. G. R. Pettit, Arizona State University. Dihydrocombretastatin A-4 was prepared as described previously (Getahun et al., 1992). […]

[3] = test system: K-562; assay: NCI in vitro tumor cell screen, K-562 leukemia; assay type: cell-based; conditions: Homo sapiens, K562
Procedure: (§1) Selected 2-phenyl-4-quinolones were assayed using an in vitro, disease-oriented antitumor screen run by the National Cancer Institute (NCI) (e.g., Boyd 1989). The screen involved approximately 60 different cell lines and is a useful indicator of in vivo antitumor activity for a broad variety of tumor types (Grever et al., 1992; Monks et al., 1991). The cell lines tested included cells derived from the following solid tumor types: leukemia, non-small cell lung, colon, the central nervous system (CNS), melanoma, ovarian, renal, prostate, and breast cancers.

[4] = test system: NCI-H226; assay: NCI in vitro tumor cell screen, NCI-H226 non-small cell lung cancer; assay type: cell-based; conditions: Homo sapiens
Procedure: as §1

[5] = test system: HCT116; assay: NCI in vitro tumor cell screen, HCT116 colon cancer; assay type: cell-based; conditions: Homo sapiens, HCT-116
Procedure: as §1

[6] = test system: KM202L; assay: NCI in vitro tumor cell screen, KM20L2 colon cancer; assay type: cell-based; conditions: Homo sapiens, KM-20L2
Procedure: as §1

[7] = test system: SF-268; assay: NCI in vitro tumor cell screen, SF-268 CNS tumor; assay type: cell-based; conditions: Homo sapiens
Procedure: as §1
(§2) melonoma; SF268 and SF295, CNS tumor cell lines; DU145, prostate cancer

[8] = test system: SF-295; assay: NCI in vitro tumor cell screen, SF-295 CNS tumor; assay type: cell-based
Procedure: as §1, §2

[9] = test system: SK-Mel-5; assay: NCI in vitro tumor cell screen, SK-Mel-5 melanoma; assay type: cell-based; conditions: Homo sapiens
Procedure: as §1, §2

[10] = test system: OVCAR-3; assay: NCI in vitro tumor cell screen, OVCAR-3 ovarian cancer; assay type: cell-based; conditions: Homo sapiens
Procedure: as §1

[11] = test system: OVCAR-4; assay: NCI in vitro tumor cell screen, OVCAR-4 ovarian cancer; assay type: cell-based; conditions: Homo sapiens
Procedure: as §1

[12] = test system: DU-145; assay: NCI in vitro tumor cell screen, DU-145 prostate cancer; assay type: cell-based; conditions: Homo sapiens
Procedure: as §1, §2

[13] = test system: MDA-N; assay: NCI in vitro tumor cell screen, MDA-N breast cancer; assay type: cell-based; conditions: Homo sapiens
Procedure: as §1

[14] = test system: approximately 60 different cell lines; assay: NCI in vitro disease-oriented human tumor cell screen, all cell lines; assay type: cell-based; conditions: for GI50: Homo sapiens
Source text: The cell lines tested included cells derived from the following solid tumor types: leukemia, non-small cell lung, colon, the central nervous system (CNS), melanoma, ovarian, renal, prostate, and breast cancers.

[15] = test system: RXF-393; assay: NCI in vitro tumor cell screen, RXF-393 renal cancer; assay type: cell-based; conditions: Homo sapiens
Procedure: as §1

[16] = ± SD, tubulin 1.2 mg/mL, 26° C., 20 min, read-out: ITP IC50 (inhibition of tubulin polymerization)
[17] = SF-268, CNS tumor, read-out: logGI50 (converted)
[18] = Homo sapiens, SF-295; read-out: logGI50 (converted)
[19] = calculated from all cell lines tested (Table II), read-out: average logGI50 (converted)
[20] = values given in mM, read-out: IC50, inhibition of tubulin polymerization
[21] = average over cell lines, read-out: average log GI50 (converted)

Compound	IC50 [1, 16] [mM]	ICB (% inhibition of colchicine binding) [2] [%]	GI50 [3] [µM]	GI50 [5] [µM]	GI50 [6] [µM]	GI50 [7, 17] [µM]	GI50 [8, 18] [µM]	GI50 [9] [µM]	GI50 [14, 19] [µM]	also measured
COc1cccc(-c2cc(O)c3cc(N4CCOCC4)ccc3n2)c1 [compound 31, 3'-Methoxy-6-morpholinyl-2-phenyl-4-quinolone]	0.00036 ± 0.0001	43 ± 10	0.0245	0.0269	0.0339	0.0537	0.049	0.0355	0.0562	GI50 [4]: 0.0339 µM; GI50 [10]: 0.02 µM; GI50 [11]: 6.31 µM; GI50 [12]: 0.0437 µM; GI50 [13]: 0.00832 µM; antitumor activity / cytotoxicity, in words [14]: highly potent, with an antitumor activity comparable to that of compound 23
CN(C)c1cccc(-c2cc(=O)c3cc4c(cc3[nH]2)OCO4)c1 [compound 36]	0.0007 ± 3e-05	29 ± 7								
COc1cccc(-c2cc(=O)c3cc(N4CCCCC4)ccc3[nH]2)c1 [compound 30, 3'-Methoxy-6-piperidinyl-2-phenyl-4-quinolone]	0.00078 ± 0.0002	53 ± 6								
COc1cccc(-c2cc(=O)c3cc(N4CCN(C)CC4)ccc3[nH]2)c1 [compound 32, 3'-Methoxy-6-methylpiperazinyl-2-phenyl-4-quinolone]	0.014 ± 0.002		0.537	0.437	1.51	1.86	1.82	0.912	1.55	IC50 [1, 20]: 0.014 mM; GI50 [4]: 1.51 µM; GI50 [11]: > 10 µM; GI50 [15]: 0.457 µM; GI50 [12]: 2.51 µM; GI50 [13]: 0.2 µM
O=c1cc(-c2cccc(Cl)c2)[nH]c2cc3c(cc12)OCO3 [compound 14, 3'-Chloro-6,7-methylenedioxy-2-phenyl-4-quinolone]	0.00037 ± 3e-05	45 ± 7			0.269			0.209	0.501	GI50 [11]: > 75.9 µM
COc1ccc(/C=C\c2cc(OC)c(OC)c(OC)c2)cc1O [combretastatin A-4, reference compound]		94 ± 2								
COc1cccc(-c2cc(=O)c3cc(NC(=O)c4ccccc4)ccc3[nH]2)c1 [compound 33, 3'-Methoxy-6'-benzamido-2-phenyl-4-quinolone]	0.0013 ± 7e-05									
CC(=O)Nc1ccc2[nH]c(-c3cccc(F)c3)cc(=O)c2c1 [compound 25, 3'-Fluoro-6-acetamido-2-phenyl-4-quinolone]										GI50 ([7]; SF-268, read-out: logGI50 (converted)): 25.7 µM; GI50 ([8]; Homo sapiens, SF-295, read-out: logGI50 (converted)): 38.9 µM
O=c1cc(-c2cccc(Br)c2)[nH]c2cc3c(cc12)OCO3 [compound 15, 3'-Bromo-6,7-methylenedioxy-2-phenyl-4-quinolone]	0.00053 ± 0.0001	26 ± 3	3.47	3.39	3.09	3.02	0.331	4.37	3.31	GI50 [4]: 3.8 µM; GI50 [10]: 4.27 µM; GI50 [11]: > 100 µM; GI50 [15]: 2.4 µM; GI50 [14, 21]: 3.16 µM
O=c1cc(-c2ccccc2)[nH]c2cc3c(cc12)OCO3 [compound 34]	0.00063 ± 0.0002	26 ± 10								
COc1cc([C@@H]2c3cc4c(cc3[C@H](O)[C@H]3COC(=O)[C@H]23)OCO4)cc(OC)c1OC [podophyllotoxin, reference compound]		84 ± 2								
CNc1cccc(-c2cc(=O)c3cc4c(cc3[nH]2)OCO4)c1 [compound 11, 3'-N-Methylamino-6,7-methylenedioxy-2-phenyl-4-quinolone]	0.00065 ± 0.0001	17 ± 11	0.398	0.245	0.331	5.5	0.324	0.447	0.513	GI50 [4]: 0.537 µM; GI50 [10]: 0.339 µM; GI50 [15]: 0.363 µM
O=c1cc(-c2cccc(OC(F)(F)F)c2)[nH]c2ccc(N3CCCC3)cc12 [compound 29, 3'-Trifluoromethoxy-6-pyrrolinyl-2-phenyl-4-quinolone]	0.00072 ± 0.0002	58 ± 5								
O=c1cc(-c2cccc(O)c2)[nH]c2cc3c(cc12)OCO3 [compound 12, 3'-Hydroxy-6,7-methylenedioxy-2-phenyl-4-quinolone]	0.00047 ± 0.0001	26 ± 3	0.724	1.82	3.31	2.29	5.5	1.48	3.09	GI50 [14, 21]: 3.16 µM
COc1ccc(CCc2cc(OC)c(OC)c(OC)c2)cc1O [dihydrocombretastatin A-4, reference compound]	0.00063 ± 3e-05	65 ± 4								
COc1cccc(-c2cc(=O)c3cc(N)ccc3[nH]2)c1 [compound 22, 3'-Methoxy-6-amino-2-phenyl-4-quinolone]	0.0087 ± 0.003				3.47				4.57	activity in tubulin polymerization assay, in words [1]: moderately active
O=c1cc(-c2cccc(C(F)(F)F)c2)[nH]c2cc3c(cc12)OCO3 [compound 16, 3'-Trifluoromethyl-6,7-methylenedioxy-2-phenyl-4-quinolone]	0.00082 ± 0.0002	5 ± 7			1.38				2.75	
Nc1ccc2[nH]c(-c3cccc(Cl)c3)cc(=O)c2c1 [compound 20, 3'-Chloro-6-amino-2-phenyl-4-quinolone]	0.0061 ± 0.001				3.16				5.5	activity in tubulin polymerization assay, in words [1]: moderately active; GI50 [11]: > 100 µM
Nc1ccc2[nH]c(-c3cccc(C(F)(F)F)c3)cc(=O)c2c1 [compound 21, 3'-Trifluoromethyl-6-amino-2-phenyl-4-quinolone]	> 0.04				34.7				39.8	activity in tubulin polymerization assay, in words [1]: inactive; IC50 [1, 20]: > 0.04 mM
COc1cccc(-c2cc(=O)c3cc4c(cc3[nH]2)OCO4)c1 [compound 35]	0.00057 ± 0.0001	39 ± 8								
Nc1cccc(-c2cc(=O)c3cc4c(cc3[nH]2)OCO4)c1 [compound 10, 3'-Amino-6,7-methylenedioxy-2-phenyl-4-quinolone]	0.00073 ± 0.0002	16 ± 7	0.891	0.479	0.708	0.759	2.4	0.933	1.62	GI50 [4]: 2.19 µM; GI50 [11]: 38.9 µM; GI50 [15]: 0.603 µM
O=c1cc(-c2cccc(F)c2)[nH]c2cc3c(cc12)OCO3 [compound 13, 3'-Fluoro-6,7-methylenedioxy-2-phenyl-4-quinolone]	0.00053 ± 0.0001	51 ± 3	0.339	0.219		0.661	0.141	0.269	0.339	GI50 [4]: 0.955 µM; GI50 [10]: 0.288 µM
